# Experimental data taken from patent publication US20220118002A1, “COMPOSITIONS OF MATTER WITH ACTIVITY TO REMOVE LIPOFUSCIN FROM RETINAL CELLS” (Cornell University, priority 2019, published 2022).
# Assays:
# [1] = system: Human retinal pigment epithelium (RPE) cultured cells, ARPE-19, pre-loaded with A2E; assay: A2E (lipofuscin bisretinoid) removal assay, fluorescence plate reader; type: cell-based; conditions: for removal of lipofuscin bisretinoids (A2E) from retinal cells: 4 mM cyclodextrin, 48 hrs, cells pre-loaded with 5 μM A2E, FIG. 2
# [2] = system: lipofuscin (LB) in RPE of DKO mice (ABCA4 and RDH8 mutations); assay: In vivo LB removal from eyes by intravitreal injection, RPE-eyecup autofluorescence; parameters: species or system mouse; conditions: FIG. 9; for reduction of the amount of lipofuscin vs vehicle (significance, unpaired T-test): two intravitreal injections one week apart, same doses; for total LB extracted from retinas: two intravitreal injections one week apart: 2 μl 100 mM MβCD, 1 μl 500 mM HPβCD or SBE-βCD, eyes harvested 4 days after second injection
# visual acuity of mice = assay: Visual acuity, Spatial Frequency (SF) response by OptoMotry; conditions: intravitreal, twice, one week apart, both eyes: 2 μl 100 mM M-βCD, 1 μl 500 mM HP-βCD or SBE-βCD, FIGS. 10A-10B
# [3] = system: Epithelial cells pre-loaded with A2E; assay: Stoichiometric distribution of A2E between cell lysates and supernatants; type: cell-based; conditions: 12.5 mM, 4 hrs, serum free media, FIG. 7
# [4] = system: lipofuscin and A2E accumulation in ABCA4-/- mouse; conditions: cited from earlier work
# formation of new LB = conditions: oral, animals; cited from earlier work
# [5] = system: patients diagnosed with Stargardt or AMD; conditions: cited from earlier work
# [6] = system: lipofuscin in RPE cells of monkey retinas; conditions: oral, one year; cited from earlier work
# A2E-loaded RPE cultures = assay: Fluorescence microscopy of LB removal from A2E-loaded cells; type: cell-based, human
# Experimental: […] At the end of the incubation period, fluorescence of A2E inside the cells was monitored by fluorescence microscopy at 100× magnification. Cells were stained with Hoechst stain to visualize nuclei of cells that contained A2E.
# FIGS. 4A-4B show the removal of LB with methyl β-Cyclodextrin as determined by fluorescence microscopy. […] Cells were stained with Hoechst stain to visualize nuclei. Fluorescence of A2E inside the cells (unextracted cells) was monitored by fluorescence microscopy at 100× magnification.
# Untreated A2E-loaded RPE cultures served as negative controls. A2E-loaded RPE cultures were treated with 7.5 mM of the indicated β-Cyclodextrin compound for 48 hrs. For each cyclodextrin, three separate lots were tested. Lipofuscin (yellow) is visualized by fluorescence microscopy (488 nm/600 nm) using low magnification (10×) objective to capture a large number of cells.
# Fluorescence microscopy: LBs are auto-fluorescent molecules on account of the abundant conjugated double bonds in their hydrophobic arms. When excited at 430 nm (blue light) they emit yellow-orange fluorescence peaking at 610 nm. The intensity of the fluorescence is proportional to their amounts. Hoechst blue fluorescence dye was used to stain the nucleus of cells treated with cyclodextrins. […] Each dose was assayed in triplicated and ten random fields were evaluated per well. […]
# [7] = system: photoreceptor layer (ONL) / retina; assay: Retina morphometry and histology (ONL thickness, H&E cross sections); type: in vivo, mouse; conditions: intravitreal treatment
# Experimental: Morphometric analysis comparing the thickneness of the outer nuclear layer (ONL) in control and SBE-BCD treated animals was performed. The layer of photoreceoptors was selected using Photoshop and ImageJ and thickness was measured.
# Stitched images were created using ZEN Blue (Zeiss) from individual fields obtained by color microscopy of hematoxylin and eosin stained paraffin-embedded cross sections of retinas from mice treated with 1 μl vehicle or Sulfo Butyl β-Cyclodextrin.
# 2 μl 100 mM M-βCD; 1 μl 500 mM HP-3CD; or 1 μl 500 mM SBE-βCD were injected twice, one-week apart, in both eyes and 2 μl H2O were injected intravitreally to age matched controls. To evaluate the visual toxicity of the treatment, the Spatial Frequency response (SF) was determined just before each injection and before sacrificing the mouse, i.e., four days after the second injection. SF is a cone-mediated visual response measured using an OptoMotry (OMT) chamber. Briefly, the mouse standing unrestrained on an elevated platform is surrounded by computer monitors that create a virtual cylinder with black bars on white background.
# [8] = long-term oral administration, ABCA4-/-
compound,measurement,setting,value
"COC[C@H]1O[C@@H]2O[C@H]3[C@H](OC)[C@@H](OC)[C@@H](O[C@H]4[C@H](OC)[C@@H](OC)[C@@H](O[C@H]5[C@H](OC)[C@@H](OC)[C@@H](O[C@H]6[C@H](OC)[C@@H](OC)[C@@H](O[C@H]7[C@H](OC)[C@@H](OC)[C@@H](O[C@H]8[C@H](OC)[C@@H](OC)[C@@H](O[C@H]1[C@H](OC)[C@H]2OC)O[C@@H]8COC)O[C@@H]7COC)O[C@@H]6COC)O[C@@H]5COC)O[C@@H]4COC)O[C@@H]3COC [2,3,6-tri-O-methyl-β-Cyclodextrin, Heptakis (2,3,6-tri-O-Methyl) β-Cyclodextrin, reference compound]",removal of lipofuscin bisretinoids (A2E) from retinal cells,[1],not effective in promoting LB removal
"COC[C@H]1O[C@@H]2O[C@H]3[C@H](O)[C@@H](OC)[C@@H](O[C@H]4[C@H](O)[C@@H](OC)[C@@H](O[C@H]5[C@H](O)[C@@H](OC)[C@@H](O[C@H]6[C@H](O)[C@@H](OC)[C@@H](O[C@H]7[C@H](O)[C@@H](OC)[C@@H](O[C@H]8[C@H](O)[C@@H](OC)[C@@H](O[C@H]1[C@H](O)[C@H]2OC)O[C@@H]8COC)O[C@@H]7COC)O[C@@H]6COC)O[C@@H]5COC)O[C@@H]4COC)O[C@@H]3COC [2,6-di-O-methyl-β-Cyclodextrin, Heptakis (2,6-di-O-Methyl) β-Cyclodextrin, reference compound]",removal of lipofuscin bisretinoids (A2E) from retinal cells,[1],not effective in promoting LB removal
"CC(O)COC[C@H]1O[C@@H]2O[C@H]3[C@H](O)[C@@H](O)[C@@H](O[C@H]4[C@H](O)[C@@H](O)[C@@H](O[C@H]5[C@H](O)[C@@H](O)[C@@H](O[C@H]6[C@H](O)[C@@H](O)[C@@H](O[C@H]7[C@H](O)[C@@H](O)[C@@H](O[C@H]8[C@H](O)[C@@H](O)[C@@H](O[C@H]1[C@H](O)[C@H]2O)O[C@@H]8COCC(C)O)O[C@@H]7COCC(C)O)O[C@@H]6COCC(C)O)O[C@@H]5COCC(C)O)O[C@@H]4COCC(C)O)O[C@@H]3COCC(C)O (stereo partly drawn) [2-Hydroxy Propyl β-Cyclodextrin, 2-hydroxypropyl beta-Cyclodextrin]",removal of lipofuscin bisretinoids (A2E) from retinal cells,[1],promoted removal of lipofuscin bisretinoids from retinal cells
same,"reduction of the amount of lipofuscin vs vehicle (significance, unpaired T-test)",[2],effective
same,visual acuity (Spatial Frequency response),visual acuity of mice,some animals showing significant impairment of visal response
same,distribution of A2E fluorescence between cells and supernatants,[3],all A2E fluorescence that was absent from cells was present in supernatants
"[2H]C([2H])([2H])C(/C=C/C=C(C)/C=C/C1=C(C)CCCC1(C)C)=C\COC(C)=O [ALK-001, deuterated vitamin A]",visual function by electroretinogram,[4]; ABCA4-/- mouse model,prevented the gradual loss of visual function
same,reduction of accumulation of A2E,[4]; [8],80%
same,reduction of accumulation of lipofuscin,[4]; [8],70%
CC1=C(/C=C/C(C)=C/C=C/C(C)=C/C(=O)Nc2ccc(O)cc2)C(C)(C)CCC1 [fenretinide],formation of new LB,formation of new LB,effective at slowing down the formation of new LB
same,side effects,[5]; oral,"night blindness, and mild reversible skin-dryness"
same,therapeutic effect in patients,[5]; patients already diagnosed with Stargardt or AMD,did not confer a significant therapeutic effect
"OC[C@H]1O[C@@H]2O[C@H]3[C@H](O)[C@@H](O)[C@@H](O[C@H]4[C@H](O)[C@@H](O)[C@@H](O[C@H]5[C@H](O)[C@@H](O)[C@@H](O[C@H]6[C@H](O)[C@@H](O)[C@@H](O[C@H]7[C@H](O)[C@@H](O)[C@@H](O[C@H]8[C@H](O)[C@@H](O)[C@@H](O[C@H]9[C@H](O)[C@@H](O)[C@@H](O[C@H]1[C@H](O)[C@H]2O)O[C@@H]9CO)O[C@@H]8CO)O[C@@H]7CO)O[C@@H]6CO)O[C@@H]5CO)O[C@@H]4CO)O[C@@H]3CO [gamma-cyclodextrin, Gamma-Cyclodextrin, reference compound]",removal of lipofuscin bisretinoids (A2E) from retinal cells,[1],did not extract A2E
COCCO[C@@H]1c2ccn3c(C)c(C)nc3c2N[C@H](c2ccccc2)[C@H]1O [soprazan],elimination of lipofuscin from RPE cells,[6],Successful elimination of lipofuscin from RPE cells
"OC[C@H]1O[C@@H]2O[C@H]3[C@H](O)[C@@H](O)[C@@H](O[C@H]4[C@H](O)[C@@H](O)[C@@H](O[C@H]5[C@H](O)[C@@H](O)[C@@H](O[C@H]6[C@H](O)[C@@H](O)[C@@H](O[C@H]7[C@H](O)[C@@H](O)[C@@H](O[C@H]1[C@H](O)[C@H]2O)O[C@@H]7CO)O[C@@H]6CO)O[C@@H]5CO)O[C@@H]4CO)O[C@@H]3CO [α-Cyclodextrin, reference compound]",removal of lipofuscin bisretinoids (A2E) from retinal cells,[1],did not extract A2E
"OC[C@H]1O[C@@H]2O[C@H]3[C@H](O)[C@@H](O)[C@@H](O[C@H]4[C@H](O)[C@@H](O)[C@@H](O[C@H]5[C@H](O)[C@@H](O)[C@@H](O[C@H]6[C@H](O)[C@@H](O)[C@@H](O[C@H]7[C@H](O)[C@@H](O)[C@@H](O[C@H]8[C@H](O)[C@@H](O)[C@@H](O[C@H]1[C@H](O)[C@H]2O)O[C@@H]8CO)O[C@@H]7CO)O[C@@H]6CO)O[C@@H]5CO)O[C@@H]4CO)O[C@@H]3CO [β-Cyclodextrin, reference compound]",removal of lipofuscin bisretinoids (A2E) from retinal cells,[1],did not extract A2E
Methyl β-Cyclodextrin,removal of lipofuscin bisretinoids (A2E) from retinal cells,[1],promoted removal of lipofuscin bisretinoids from retinal cells
same,dose that removed most of the detectable LB deposits,"[1]; 24 hrs, FIG. 3A",10 to 20 µM
same,dose dependence of A2E removal,"[1]; 24 hrs, increasing doses, FIG. 3A",dose-dependent
same,A2E removal compared to untreated control at lowest tested dose,"[1]; 24 hrs, lowest tested dose, FIG. 3A",about 75%
same,"reduction of the amount of lipofuscin vs vehicle (significance, unpaired T-test)",[2],did not significantly reduce the amount of lipofuscin
same,total LB extracted from retinas,[2],18.2%
same,distribution of A2E fluorescence between cells and supernatants,[3],all A2E fluorescence that was absent from cells was present in supernatants
same,localisation of LB after treatment,"A2E-loaded RPE cultures; 7.5 mM, 100× objective, FIGS. 4A-4B",LB was expelled outside the cells
same,LB fluorescence in cells after treatment,"A2E-loaded RPE cultures; 24 hours, 100× magnification, FIG. 3B",completely devoid of the turquoise fluorescence
Sulfobutyl ether β-Cyclodextrin [Sulfo Butyl Ether β-Cyclodextrin],removal of lipofuscin bisretinoids (A2E) from retinal cells,[1],promoted removal of lipofuscin bisretinoids from retinal cells
same,"reduction of the amount of lipofuscin vs vehicle (significance, unpaired T-test)",[2],effective
same,total LB extracted from retinas,[2],42.6%
same,overall structure of the retinas,"[7]; H&E cross sections, FIG. 11B",remained intact
same,integrity of the photoreceptor layer (ONL),"[7]; ONL thickness, FIG. 11A",did not compromise the integrity of the photoreceptor layer (ONL)
same,visual acuity (Spatial Frequency response),visual acuity of mice,well tolerated showing indistinguishable SF from water treated and non-injected negative controls
same,distribution of A2E fluorescence between cells and supernatants,[3],all A2E fluorescence that was absent from cells was present in supernatants
